From ChEMBL document CHEMBL1140202, “A novel cell-penetrating peptide sequence derived by structural minimization of a snake toxin exhibits preferential nucleolar localization” (J Med Chem, 2008) come the findings set out here.

The test system of data set [1] is HeLa. Briefly: Toxicity against human HeLa cells upto 100 uM after 24 hrs by MTT assay. The class given is cell-based. (In general: Formazan colour is commonly taken as a measure of viable cells.)
The test system of data set [2] is HeLa. Briefly: Cellular uptake in human HeLa cells assessed as drug translocation through nucleolar membrane by time-lapsed confocal microscopy. The class given is ADME, cell-based.
Data set [3] has as its system HeLa. Kind of data set: Drug penetration in human HeLa cells at 15 to 50 uM by time-lapsed confocal microscopy relative to control. The class given is ADME, cell-based.

Where a SMILES comes first, the peptide text is derived from it. [ ]: non-standard residue; d: D form. Ahx = NCCCCCC(=O)O

In the case of H-GSGKKGGKKHCQKY-OH, the Activity entry in the data set on HeLa [1] is recorded as “Non-toxic”.
As for `NCCCC[C@H](NC(=O)CCCCCNC(=O)CNC(=O)CNC(=O)[C@H](CCCCN)NC(=O)[C@H](CCCCN)NC(=O)[C@H](Cc1cnc[nH]1)NC(=O)[C@H](CS)NC(=O)[C@H](CCC(N)=O)NC(=O)[C@H](CCCCN)NC(=O)[C@@H](N)Cc1ccc(O)cc1)C(=O)N[C@@H](CCCCN)C(=O)NCC(=O)N[C@@H](CO)C(=O)NCC(=O)O` (H-YKQCHKKGG[Ahx]KKGSG-OH), the Activity entry in the data set with HeLa [1] is “Non-toxic”; with HeLa [2], “Dose-dependent effect and tde”. The Drug uptake in the data set on HeLa [3] came out at 50%.
For the compound H-GSGKKGGKKICQKY-OH, the Activity entry with HeLa [1] is recorded as “Non-toxic”.
On to H-YKQCHKKGGKKGSG-OH, for which the Activity result in the data set on HeLa [1] was “Non-toxic”. The Drug uptake in the data set with HeLa [3] was 50%.
